# According to US10681908B2, “Molecules having pesticidal utility, and intermediates, compositions, and processes, related thereto” (Dow AgroSciences LLC, priority 2016, dated 2020):
# Experiments:
# Assay type in all cases: in vivo
# [1] = test system: Cabbage Looper (Trichoplusia ni, TRIPNI); assay: Bioassay on Cabbage Looper (CL), 128-well diet tray assay; settings: 168 h, 50 μg/cm^2 on artificial diet, second instar larvae, five to seven days, 25° C., read-out: CL % Control (or Mortality) rating
# Outline: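 Diet-tray assay: 1–5 second-instar larvae per well on artificial diet surface-treated with 50 μg/cm^2 compound (90:10 acetone-water, dried), eight wells per compound. Held at 25° C., 14:10 light-dark for five to seven days; percent mortality per well averaged across the eight wells.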
# [2] = test system: Beet Armyworm (Spodoptera exigua, LAPHEG); assay: Bioassay on Beet Armyworm (BAW), 128-well diet tray assay; settings: 168 h, 50 μg/cm^2 on artificial diet, second instar larvae, five to seven days, 25° C., read-out: BAW % Control (or Mortality) rating
# Outline: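 Artificial diet was surface-treated with 50 μg/cm^2 of compound in 90:10 acetone-water and dried; one to five second-instar larvae were placed per well, eight wells per treatment. Held at 25 °C, 14:10 light-dark, for five to seven days, then percent mortality per well was averaged.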
# [3] = test system: Green Peach Aphid (Myzus persicae, MYZUPE); assay: Bioassay on Green Peach Aphid (GPA), foliar spray on infested cabbage seedlings; settings: 72 h, 200 ppm foliar spray, three days, Abbott corrected % control, read-out: GPA % Control (or Mortality) rating
# Description: Example B: Bioassays on Green Peach Aphid (Myzus Persicae, MYZUPE) (“GPA”)
# Certain molecules disclosed in this document were tested against GPA using procedures described in the following example. In the reporting of the results, the “GPA & YFM Rating Table” was used (See Table Section).
# Cabbage seedlings grown in 3-inch pots, with 2-3 small (3-5 cm) true leaves, were used as test substrate. The seedlings were infested with 20-50 GPA (wingless adult and nymph stages) one day prior to chemical application. Four pots with individual seedlings were used for each treatment. Test molecules (2 mg) were dissolved in 2 mL of acetone/methanol (1:1) solvent, forming stock solutions of 1000 ppm test molecule. The stock solutions were diluted 5× with 0.025% Tween 20 in water to obtain the solution at 200 ppm test molecule. A hand-held aspirator-type sprayer was used for spraying a solution to both sides of […] leaves until runoff. Reference plants (solvent check) were sprayed with the diluent only containing 20% by volume of acetone/methanol (1:1) solvent. Treated plants were held in a holding room for three days at approximately 25° C. and ambient relative humidity (RH) prior to grading. Evaluation was conducted by counting the number of live aphids per plant under a microscope. Percent Control was measured by using Abbott's correction formula (W. S. Abbott, “A Method of Computing the Effectiveness of an Insecticide” J. Econ. Entomol. 18 (1925), pp. 265-267) as follows. Corrected % Control=100*(X−Y)/X • where • X=No. of live aphids on solvent check plants and • Y=No. of live aphids on treated plants
# [4] = test system: Yellow Fever Mosquito (Aedes aegypti, AEDSAE); settings: about 1 day-old larvae, 3 days, room temperature, scored on mortality
# Outline: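 Compounds from DMSO master plates (4000 ppm stock) diluted with 90:10 water:acetone, then about 1-day-old larvae in liver-powder water added. Held covered at room temperature for 3 days; each well scored for mortality.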
SMILES,mortality at 50 µg/cm2 [1] [%],mortality at 50 µg/cm2 [2] [%],mortality at 200 ppm [3] [%],YFM % Control (or Mortality) rating [4]
"C[C@H](C[S+]([O-])CC(F)(F)F)NC(=O)c1ccc(/C(F)=C/C(c2cc(Cl)c(Cl)c(Cl)c2)C(F)(F)F)cc1C(F)(F)F (stereo partly drawn) [F3, 4-((Z)-1,4,4,4-tetrafluoro-3-(3,4,5-trichlorophenyl)but-1-en-1-yl)-N-((2R)-1-((2,2,2-trifluoroethyl)sulfinyl)propan-2-yl)-2-(trifluoromethyl)benzamide]",50 to 100,50 to 100,0 to 80,–
"CCS(=O)(=O)C[C@@H](C)NC(=O)c1ccc(/C(F)=C/C(c2cc(Cl)c(F)c(Cl)c2)C(F)(F)F)cc1C(F)(F)F (stereo partly drawn) [F43, 4-((Z)-3-(3,5-Dichloro-4-fluorophenyl)-1,4,4,4-tetrafluorobut-1-en-1-yl)-N—((R)-1-(ethylsulfonyl)propan-2-yl)-2-(trifluoromethyl)benzamide]",50 to 100,50 to 100,80 to 100,A (80-100)
"C[C@H](C[S+]([O-])CC(F)(F)F)NC(=O)c1ccc(/C(F)=C/C(c2cc(Cl)cc(Br)c2)C(F)(F)F)cc1C(F)(F)F (stereo partly drawn) [F68, 4-((Z)-3-(3-Bromo-5-chlorophenyl)-1,4,4,4-tetrafluorobut-1-en-1-yl)-N-((2R)-1-((2,2,2-trifluoroethyl)sulfinyl)propan-2-yl)-2-(trifluoromethyl)benzamide]",50 to 100,50 to 100,0 to 80,A (80-100)
"CCS(=O)(=O)C[C@@H](C)NC(=O)c1ccc(/C(F)=C/C(c2ccc(Cl)c(Cl)c2)C(F)(F)F)cc1C(F)(F)F (stereo partly drawn) [F46, 4-((Z)-3-(3,4-Dichlorophenyl)-1,4,4,4-tetrafluorobut-1-en-1-yl)-N—((R)-1-(ethylsulfonyl)propan-2-yl)-2-(trifluoromethyl)benzamide]",50 to 100,50 to 100,0 to 80,B (More than 0-Less than 80)
"CCS(=O)(=O)C[C@@H](C)NC(=O)c1ccc(/C(F)=C/C(c2cc(Br)cc(Br)c2)C(F)(F)F)cc1C(F)(F)F (stereo partly drawn) [F42, 4-((Z)-3-(3,5-Dibromophenyl)-1,4,4,4-tetrafluorobut-1-en-1-yl)-N—((R)-1-(ethylsulfonyl)propan-2-yl)-2-(trifluoromethyl)benzamide]",50 to 100,50 to 100,0 to 80,A (80-100)
"C[C@H](CS(=O)(=O)CC(F)(F)F)NC(=O)c1ccc(/C(F)=C/C(c2ccc(F)c(Cl)c2)C(F)(F)F)cc1C(F)(F)F (stereo partly drawn) [PF2, 4-((Z)-3-(3-Chloro-4-fluorophenyl)-1,4,4,4-tetrafluorobut-1-en-1-yl)-N—((R)-1-((2,2,2-trifluoroethyl)sulfonyl)propan-2-yl)-2-(trifluoromethyl)benzamide]",50 to 100,50 to 100,0 to 80,B (More than 0-Less than 80)
"C[C@H](CS(=O)(=O)CC(F)(F)F)NC(=O)c1ccc(/C(F)=C/C(c2cc(Br)c(Cl)c(Br)c2)C(F)(F)F)cc1C(F)(F)F (stereo partly drawn) [F22, 4-((Z)-3-(3,5-Dibromo-4-chlorophenyl)-1,4,4,4-tetrafluorobut-1-en-1-yl)-N—((R)-1-((2,2,2-trifluoroethyl)sulfonyl)propan-2-yl)-2-(trifluoromethyl)benzamide]",50 to 100,50 to 100,0 to 80,A (80-100)
"C[C@H](CS(=O)(=O)CC(F)(F)F)NC(=O)c1ccc(/C(F)=C/C(c2cc(Br)cc(Br)c2)C(F)(F)F)cc1C(F)(F)F (stereo partly drawn) [F69, 4-((Z)-3-(3,5-Dibromophenyl)-1,4,4,4-tetrafluorobut-1-en-1-yl)-N—((R)-1-((2,2,2-trifluoroethyl)sulfonyl)propan-2-yl)-2-(trifluoromethyl)benzamide]",50 to 100,50 to 100,0 to 80,A (80-100)
"C[C@H](CSCC(F)(F)F)NC(=O)c1ccc(/C(F)=C/C(c2cc(Br)c(Cl)c(Br)c2)C(F)(F)F)cc1C(F)(F)F (stereo partly drawn) [F21, 4-((Z)-3-(3,5-Dibromo-4-chlorophenyl)-1,4,4,4-tetrafluorobut-1-en-1-yl)-N—((R)-1-((2,2,2-trifluoroethyl)thio)propan-2-yl)-2-(trifluoromethyl)benzamide]",50 to 100,50 to 100,80 to 100,A (80-100)
"C[C@H](CS(=O)(=O)CC(F)(F)F)NC(=O)c1ccc(/C(F)=C/C(c2cc(Cl)c(Cl)c(Cl)c2)C(F)(F)F)cc1C(F)(F)F (stereo partly drawn) [F2, 4-((Z)-1,4,4,4-tetrafluoro-3-(3,4,5-trichlorophenyl)but-1-en-1-yl)-N—((R)-1-((2,2,2-trifluoroethyl)sulfonyl)propan-2-yl)-2-(trifluoromethyl)benzamide]",50 to 100,50 to 100,0 to 80,–
"C[C@H](C[S+](C)[O-])NC(=O)c1ccc(/C(F)=C/C(c2cc(Cl)c(Cl)c(Cl)c2)C(F)(F)F)cc1C(F)(F)F (stereo partly drawn) [F88, N-((2R)-1-(Methylsulfinyl)propan-2-yl)-4-((Z)-1,4,4,4-tetrafluoro-3-(3,4,5-trichlorophenyl)but-1-en-1-yl)-2-(trifluoromethyl)benzamide]",50 to 100,50 to 100,80 to 100,–
"C[C@H](CSCC(F)(F)F)NC(=O)c1ccc(/C(F)=C/C(c2cc(Cl)c(Cl)c(Cl)c2)C(F)(F)F)cc1C(F)(F)F (stereo partly drawn) [F1, 4-((Z)-1,4,4,4-tetrafluoro-3-(3,4,5-trichlorophenyl)but-1-en-1-yl)-N—((R)-1-((2,2,2-trifluoroethyl)thio)propan-2-yl)-2-(trifluoromethyl)benzamide]",50 to 100,50 to 100,0 to 80,–
"C[C@H](CSCC(F)(F)F)NC(=O)c1ccc(/C(F)=C/C(c2ccc(Cl)c(Cl)c2)C(F)(F)F)cc1C(F)(F)F (stereo partly drawn) [F20, 4-((Z)-3-(3,4-Dichlorophenyl)-1,4,4,4-tetrafluorobut-1-en-1-yl)-N—((R)-1-((2,2,2-trifluoroethyl)thio)propan-2-yl)-2-(trifluoromethyl)benzamide]",50 to 100,50 to 100,–,D (No activity noticed in this bioassay)
"C[C@H](CS(=O)(=O)CC(F)(F)F)NC(=O)c1ccc(/C(F)=C/C(c2cc(Cl)cc(Cl)c2)C(F)(F)F)cc1C(F)(F)F (stereo partly drawn) [F17, 4-((Z)-3-(3,5-dichlorophenyl)-1,4,4,4-tetrafluorobut-1-en-1-yl)-N—((R)-1-((2,2,2-trifluoroethyl)sulfonyl)propan-2-yl)-2-(trifluoromethyl)benzamide]",50 to 100,50 to 100,–,A (80-100)
"C[C@H](CS(=O)(=O)CC(F)(F)F)NC(=O)c1ccc(/C(F)=C/C(c2ccc(Cl)c(Cl)c2)C(F)(F)F)cc1C(F)(F)F (stereo partly drawn) [F18, 4-((Z)-3-(3,4-Dichlorophenyl)-1,4,4,4-tetrafluorobut-1-en-1-yl)-N—((R)-1-((2,2,2-trifluoroethyl)sulfonyl)propan-2-yl)-2-(trifluoromethyl)benzamide]",50 to 100,50 to 100,–,A (80-100)
